Data set [1] in a line: Partition coefficient (log P) by octanol/water (pH 7.4) partition method. The format is physicochemical. How it is done:
(§1) On the other hand, affinity of FMDAA1106 and FEDAA1106 to central benzodiazepine receptor (CBR) was determined (Table 1) using [^11C]flumazenil which is a selective ligand for CBR. As a result, affinity of FEDAA1106 and FMDAA1106 to CBR was not less than 10 μM and was about 10,000-fold weaker than the affinity of PBR. […] Incidentally, partition coefficients (log P) of the two ligands were measured by an octanol/water (pH 7.4) partition method.

Data set [2] deals with T1, peripheral benzodiazepine receptor (PBR) (Rattus norvegicus, UniProt P16257).
T1 construct: Sagittal sections of the rat were prepared using Crystat microtome; from tissue; host or cells: rat brain sagittal sections (ROI: olfactory bulb)
Nature of the data set: In vitro affinity to PBR: displacement of [11C]DAA1106 binding on rat brain sections (autoradiography, olfactory bulb ROI). The settings on record: for IC50: [11C]DAA1106 1 nM, rat brain sections, olfactory bulb, 37° C. 30 minutes, probit method. How it is done: Under anesthetization with ether, male Sprague-Dawley rats (250 to 300 g; n=4) were slaughtered and the brain was quickly cut and frozen in dry ice. Sagittal sections of the rat were prepared using Crystat microtome (MICROM HM560, Carl Zeiss GmbH, Germany). The sections were previously incubated in a 50 mM Tris buffer (pH=7.4) for 30 minutes. After that, the sections were taken out and again incubated at 37° C. for 30 minutes in 50 mM Tris buffer (pH=7.4) containing each of the following reagents at the same time.
After completion of the incubation, the section was taken out and dipped in an ice-cooled Tris buffer for 2 minutes twice. The section was dipped in ice-cooled distilled water and then dried. […] A region of interest (ROI) was defined as an olfactory bulb and radioactivity was expressed in terms of a photo-stimulated-luminescence (PSL)/mm^2 region. Specific binding of [^11C]DAA1106 in the presence of DAA1106, PK11156, FMDAA1106 and FEDAA1106 of various concentrations was determined and IC50 (nM) of those reagents was calculated by a probit method.

Data set [3] deals with T2, central benzodiazepine receptor (CBR).
T2 construct: IC50 CBR; other: [11C]flumazenil
Put plainly: Affinity to CBR using [11C]flumazenil, a selective ligand for CBR. The format is binding, rat. The settings on record: [11C]flumazenil. Here is the method: as §1

Data set [4] concerns central benzodiazepine receptor (CBR). The description is as above. The settings on record: CBR versus PBR selectivity. It counts as binding, rat. Here is the method: as §1

Consider `COc1ccc(OC)c(CN(C(C)=O)c2cc(F)ccc2Oc2ccccc2)c1` [DAA1106, N-(2,5-dimethoxybenzyl)-N-(5-fluoro-2-phenoxyphenyl)acetamide, reference compound], for which the logP in data set [1] is 3.65. Moreover, the figures for the IC50 in data set [2] and in data set [3] were 1.62 nM and over 10000 nM, respectively.

Turning to `COc1ccc(OCCF)c(CN(C(C)=O)c2cc(F)ccc2Oc2ccccc2)c1` [FEDAA1106, N-[2-(2-fluoro)ethyl-5-methoxybenzyl]-N-(5-fluoro-2-phenoxyphenyl)acetamide], the logP in data set [1] was 3.81. The IC50 in data set [2] is 0.77 nM; in data set [3] it was over 10000 nM. Besides, the “affinity to PBR as compared with DAA1106” value in data set [2] (relative to DAA1106) is on record as “two-fold higher affinity”. The “affinity to PBR as compared with PK11195” value in data set [2] (relative to PK11195) was “about ten-fold stronger affinity”. Also, in data set [4], the “affinity to CBR weaker than the affinity of PBR” value is “about 10,000 fold”.

The molecule `CCC(C)N(C)C(=O)c1cc2ccccc2c(-c2ccccc2Cl)n1` (stereo not shown) [PK11195, N-methyl-N-(1-methylpropyl)-1-(2-chlorophenyl)-isoquinoline-3-carboxamide, reference compound] showed an IC50 in data set [3] of over 10000 nM.

Source of the values: US6870069B2, “Phenyloxyaniline derivatives” (National Institute of Radiological Sciences, priority 2003, dated 2005).
